The values that follow come from article PMC9130746, “In Vitro Activity of Peptide Antibiotics in Combination With Other Antimicrobials on Extensively Drug-Resistant Acinetobacter baumannii in the Planktonic and Biofilm Cell” (Frontiers in Pharmacology, 2022).

Values after ≈ are worked out from the molar mass of the structure shown. Like-named read-outs stand apart in the source and are kept apart here. Bridge positions count the residues as written; N and C are the ends. Square brackets hold non-standard residues; d marks the D form. Peptide text beside a SMILES is read from it. * marks the point of attachment. X1 = CC[C@H](C)CCCCC(=O)*; Dab = NCC[C@H](N)C(=O)O

For test [1], the system named is extensively drug-resistant A. baumannii clinical isolates (planktonic cell). Description: microbe, parasite or virus in culture. The format is cell-based, Acinetobacter baumannii. The note with it: planktonic, broth microdilution, CAMHB, 37°C 16–20 h, OD600. The text has this:
(§1) Nine XDRAB strains were isolated from clinical specimens such as the septum, urine, or respiratory lavage fluid of patients from the respiratory intensive care unit, intensive care unit, the cardiothoracic surgery department, and the neurology department at the First Affiliated Hospital of Chengdu Medical College during the period from 2018 to 2020 (Chengdu, Sichuan, China). In addition, A. baumannii ATCC 19606, Staphylococcus aureus ATCC 29213, and Escherichia coli ATCC 25922 were used as quality control strains in antimicrobial susceptibility testing (AST) and obtained from the American Type Culture Collection (ATCC, Manassas, VA, United States).
The minimum inhibitory concentrations (MICs) were determined by the broth microdilution method for the antibacterial agents and peptide antibiotics for A. baumannii based on the guidelines provided by the Clinical and Laboratory Standards Institute (CLSI) ([Humphries et al., 2021]). Briefly, bacterial cells were inoculated in Luria–Bertani agar medium at 37°C for 16–20 h, and then resuspended in saline (0.9% sodium chloride) to adjust the bacterial content to reach the 0.5 McFarland turbidity standard, followed by a 20-fold dilution. Antimicrobial solutions were prepared according to the CLSI ([Humphries et al., 2021]). Finally, 180 μl CAMHB, 10 µl corresponding antimicrobials, and 10 µl bacterial resuspension were added into 96-well plate (NEST TC, 701001, www.cell-nest.com). The value of OD600 was measured after incubating at 37°C for 16–20 h.
In general terms: Broth dilution looks for growth in wells or tubes with falling amounts of substance.

Test [2] has as its system extensively drug-resistant A. baumannii clinical isolates (biofilm cell). The format is cell-based, Acinetobacter baumannii. The note with it: 24 h biofilm in TSB, then MH broth with drug 16–20 h 37°C, OD600.
Description: as §1
The minimum biofilm inhibitory concentrations (MBICs) were detected using a previous study protocol ([Kart et al., 2021]) for the antibacterial agents and peptide antibiotics for A. baumannii in the biofilm cell. First, bacterial cells were inoculated in Luria–Bertani agar medium at 37°C for 16–20 h. Next, the bacterial monoclones were resuspended in saline (0.9% sodium chloride) to adjust the bacterial content to reach the 0.5 McFarland turbidity standard. Then, 190 µl TSB and 10 µl bacterial resuspension were mixed in a 96-well plate. After incubating at 37°C for 24 h, the medium was aspirated, and 200 µl PBS was added to wash three times. Finally, 190 μl MH broth medium and 10 µl corresponding antibiotics were added into 96-well plate (NEST TC, 701001, www.cell-nest.com). The optical density was measured at OD600 after incubating for 16–20 h at 37°C.

Regarding `CC[C@H](C)CCCCC(=O)N[C@@H](CCN)C(=O)N[C@H](C(=O)N[C@@H](CCN)C(=O)N[C@H]1CCNC(=O)[C@H]([C@@H](C)O)NC(=O)[C@H](CCN)NC(=O)[C@H](CCN)NC(=O)[C@H](CC(C)C)NC(=O)[C@@H](Cc2ccccc2)NC(=O)[C@H](CCN)NC1=O)[C@@H](C)O` [Polymyxin B, polymyxin B] (X1-[Dab]T[Dab][Dab][Dab][dF]L[Dab][Dab]T; lactam 4-C (inferred); N-terminus assumed), the MIC amounted to 2 µg/mL (≈ 1.66 µM) in test [1] (isolate AB1); 1 µg/mL (≈ 0.831 µM) in test [1] (isolate AB2); 1 µg/mL (≈ 0.831 µM) in test [1] (isolate AB3); 2 µg/mL (≈ 1.66 µM) in test [1] (isolate AB4); 2 µg/mL (≈ 1.66 µM) in test [1] (isolate AB5); 1 µg/mL (≈ 0.831 µM) in test [1] (isolate AB6). Further, the MIC in test [1] (isolate AB7), in test [1] (isolate AB8) and in test [1] (isolate AB9) was 2 µg/mL (≈ 1.66 µM) in each case. Also, the MBIC came out at 16 µg/mL in test [2] (isolate AB1); 16 µg/mL in test [2] (isolate AB2); 8 µg/mL in test [2] (isolate AB3); 8 µg/mL in test [2] (isolate AB4); 16 µg/mL in test [2] (isolate AB5); 16 µg/mL in test [2] (isolate AB6). The MBIC in test [2] (isolate AB7), in test [2] (isolate AB8) and in test [2] (isolate AB9) was 8 µg/mL in each case.
teicoplanin: the MIC turned out to be 64 µg/mL in test [1] (isolate AB1); 64 µg/mL in test [1] (isolate AB2); 32 µg/mL in test [1] (isolate AB3); 32 µg/mL in test [1] (isolate AB4); 64 µg/mL in test [1] (isolate AB5); 32 µg/mL in test [1] (isolate AB6). Moreover, the MIC in test [1] (isolate AB7) stood at 128 µg/mL; in test [1] (isolate AB8) it was 32 µg/mL; in test [1] (isolate AB9), 64 µg/mL. Besides, the MBIC in test [2] (isolate AB2), in test [2] (isolate AB3), in test [2] (isolate AB6) and in test [2] (isolate AB9) was 64 µg/mL each time.
`CN[C@H](CC(C)C)C(=O)N[C@H]1C(=O)N[C@@H](CC(N)=O)C(=O)N[C@H]2C(=O)N[C@H]3C(=O)N[C@H](C(=O)N[C@H](C(=O)O)c4cc(O)cc(O)c4-c4cc3ccc4O)[C@H](O)c3ccc(c(Cl)c3)Oc3cc2cc(c3O[C@@H]2O[C@H](CO)[C@@H](O)[C@H](O)[C@H]2O[C@H]2C[C@](C)(N)[C@H](O)[C@H](C)O2)Oc2ccc(cc2Cl)[C@H]1O` [Vancomycin, vancomycin]: the MIC in test [1] (isolate AB1) was found to be 64 µg/mL (≈ 44.2 µM); in test [1] (isolate AB2) it was 64 µg/mL (≈ 44.2 µM); in test [1] (isolate AB3), 128 µg/mL (≈ 88.3 µM); in test [1] (isolate AB4) it was 64 µg/mL (≈ 44.2 µM); in test [1] (isolate AB5) it was 128 µg/mL (≈ 88.3 µM); in test [1] (isolate AB6), 128 µg/mL (≈ 88.3 µM). Further, the MIC in test [1] (isolate AB7) worked out at 128 µg/mL (≈ 88.3 µM); in test [1] (isolate AB8), 64 µg/mL (≈ 44.2 µM); in test [1] (isolate AB9) it was 128 µg/mL (≈ 88.3 µM). Further, the MBIC in test [2] (isolate AB1) was 256 µg/mL; in test [2] (isolate AB2), 128 µg/mL; in test [2] (isolate AB3), 128 µg/mL; in test [2] (isolate AB4), 128 µg/mL; in test [2] (isolate AB5) it was 256 µg/mL; in test [2] (isolate AB6), 256 µg/mL. The MBIC in test [2] (isolate AB7), in test [2] (isolate AB8) and in test [2] (isolate AB9) was 128 µg/mL throughout.
For polymyxin E, the MIC was found to be 2 µg/mL in test [1] (isolate AB1); 1 µg/mL in test [1] (isolate AB2); 1 µg/mL in test [1] (isolate AB3); 2 µg/mL in test [1] (isolate AB4); 2 µg/mL in test [1] (isolate AB5); 1 µg/mL in test [1] (isolate AB6). Besides, the MIC in test [1] (isolate AB7), in test [1] (isolate AB8) and in test [1] (isolate AB9) was 2 µg/mL throughout. Also, the MBIC is 16 µg/mL in test [2] (isolate AB1); 8 µg/mL in test [2] (isolate AB2); 4 µg/mL in test [2] (isolate AB3); 4 µg/mL in test [2] (isolate AB4); 8 µg/mL in test [2] (isolate AB5); 8 µg/mL in test [2] (isolate AB6). Further, the MBIC in test [2] (isolate AB7) stood at 8 µg/mL; in test [2] (isolate AB8), 4 µg/mL; in test [2] (isolate AB9) it was 8 µg/mL.
